Data on 33 molecules can be found in PMC12613816, “Discovery of Novel Isoxazole-Based Small-Molecule Toll-Like Receptor 8 Antagonists” (Journal of Medicinal Chemistry, 2025).

For the assay, the target named is T1, TLR8 (Homo sapiens, UniProt Q9NR97).
T1 sequence (Q9NR97 27-1041): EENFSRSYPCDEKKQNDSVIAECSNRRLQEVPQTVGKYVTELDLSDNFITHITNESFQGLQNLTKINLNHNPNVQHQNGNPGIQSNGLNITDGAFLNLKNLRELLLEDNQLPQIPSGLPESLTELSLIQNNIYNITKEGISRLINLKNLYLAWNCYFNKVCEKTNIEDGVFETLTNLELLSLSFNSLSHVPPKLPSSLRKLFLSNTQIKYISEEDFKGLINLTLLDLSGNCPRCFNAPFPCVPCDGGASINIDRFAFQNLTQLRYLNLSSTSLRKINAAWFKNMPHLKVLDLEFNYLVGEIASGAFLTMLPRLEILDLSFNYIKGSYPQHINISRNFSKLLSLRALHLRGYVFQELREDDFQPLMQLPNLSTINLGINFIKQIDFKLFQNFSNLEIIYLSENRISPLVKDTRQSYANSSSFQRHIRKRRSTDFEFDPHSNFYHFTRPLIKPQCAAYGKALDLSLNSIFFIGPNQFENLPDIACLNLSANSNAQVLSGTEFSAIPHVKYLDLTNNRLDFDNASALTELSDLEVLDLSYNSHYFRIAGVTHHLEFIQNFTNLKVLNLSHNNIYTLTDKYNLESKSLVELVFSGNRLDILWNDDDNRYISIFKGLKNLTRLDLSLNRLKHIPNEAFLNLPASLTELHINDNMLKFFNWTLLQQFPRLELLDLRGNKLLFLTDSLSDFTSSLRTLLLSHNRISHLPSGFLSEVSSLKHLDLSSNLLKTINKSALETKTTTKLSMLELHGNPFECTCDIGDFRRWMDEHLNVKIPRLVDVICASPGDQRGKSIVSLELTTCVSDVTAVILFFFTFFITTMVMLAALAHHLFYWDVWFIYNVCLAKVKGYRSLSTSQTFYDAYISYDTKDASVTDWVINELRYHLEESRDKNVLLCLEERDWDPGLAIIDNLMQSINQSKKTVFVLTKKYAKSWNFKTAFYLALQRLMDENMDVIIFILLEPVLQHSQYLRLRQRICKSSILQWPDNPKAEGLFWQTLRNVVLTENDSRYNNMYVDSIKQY
As to the kind of experiment: Inhibition of TL8-506-stimulated NF-κB activity (SEAP reporter, QuantiBlue) in hTLR8-HEK293 reporter cells. The format is cell-based. On the set-up: host or cells: HEK293 (HEK-Blue hTLR8). The settings on record: for inhibition at 10 µM: read-out: % inhibition at 10 µM ± SEM (NF-κB activity); for IC50: read-out: IC50 [μM] (95% CI) hTLR8-HEK293, inhibition of NF-κB activity, 1 h preincubation.

Where [1] appears, read: 10 µM compound, TL8-506 (0.6 μM) 24 h, hTLR8-HEK293.

For orientation: inhibition means the relative decrease from the control value, in per cent. Usually IC50 stands for the concentration at which inhibition is half-maximal. In general, % inhibition refers to the change of the read-out against control, counted positive when it falls. A higher % inhibition goes with a strong effect.

For the molecule `COc1cc(C(=O)NC2CCN(C(C)C)CC2)ccc1OCc1c(C)noc1C` [Compound 28, 4-((3,5-Dimethylisoxazol-4-yl)methoxy)-N-(1-isopropylpiperidin-4-yl)-3-methoxybenzamide], under setting [1], the inhibition at 10 µM is 97 ± 1%. The 50% inhibitory concentration (IC50) (TL8-506 (0.6 μM) 24 h) is 1.73 µM.

In the case of `COc1cc(C(=O)NN2CCN(C)CC2)ccc1OCc1c(C)noc1C` [Compound 23, 4-((3,5-Dimethylisoxazol-4-yl)methoxy)-3-methoxy-N-(4-methylpiperazin-1-yl)benzamide], where the note is “hTLR8-HEK293”, the “inhibition of NF-κB at 10 μM (in words)” value is listed as “moderate”. Moreover, the inhibition at 10 µM under setting [1] turned out to be 57 ± 3%.

As for `Cc1noc(C)c1COc1cccc(C(=O)N2CCN(C)CC2C)c1` (centres unmarked) [Compound 3], the inhibition at 10 µM under setting [1] is -6 ± 2%.

In the case of `COc1cc(C(=O)NC2CCN(C)C2)ccc1OCc1c(C)noc1C` (centres unmarked) [Compound 27, 4-((3,5-Dimethylisoxazol-4-yl)methoxy)-3-methoxy-N-(1-methylpyrrolidin-3-yl)benzamide], under setting [1], the inhibition at 10 µM was determined as 84 ± 4%. Further, the IC50 (TL8-506 (0.6 μM) 24 h) was 8.15 µM.

For `Cc1noc(C)c1COc1ccc(C(=O)NC2CCN(C(C)C)CC2)cc1` [Compound 35, 4-((3,5-Dimethylisoxazol-4-yl)methoxy)-N-(1-isopropylpiperidin-4-yl)benzamide], under setting [1], the inhibition at 10 µM came out at 99 ± 0.2%. Moreover, the IC50 (TL8-506 (0.6 μM) 24 h) was found to be 0.99 µM.

With `CCN1CCC(CNC(=O)c2cccc(OCc3c(C)noc3C)c2)CC1` [Compound 8], under setting [1], the inhibition at 10 µM stood at 20 ± 4%.

As to “(4-((3,5-Dimethylisoxazol-4-yl)methoxy)-3-methoxyphenyl)(5-methylhexahydropyrrolo[3,4-c]pyrrol-2(1H)-yl)methanone [Compound 25]”, the “% inhibition at 10 µM ± SEM (NF-κB activity)” value under setting [1] is on record as 68 ± 6%.

`Cc1noc(C)c1COc1ccc(C(=O)N2CCN(Cc3ccccc3)CC2)cc1` [Compound 17, 4-Benzylpiperazin-1-yl(4-((3,5-Dimethylisoxazol-4-yl)methoxy)phenyl)methanone]: the “inhibition of NF-κB at 10 μM (in words)” value (hTLR8-HEK293) is on record as “moderate”. Also, under setting [1], the inhibition at 10 µM was found to be 52 ± 4%.

In the case of `COc1cc(C(=O)NCC2CCN(C)C2)ccc1OCc1c(C)noc1C` (centres unmarked) [Compound 32, 4-((3,5-Dimethylisoxazol-4-yl)methoxy)-3-methoxy-N-((1-methylpyrrolidin-3-yl)methyl)benzamide], the inhibition at 10 µM under setting [1] came to 77 ± 5%.

Turning to `CCN1CCC(NC(=O)c2ccc(OCc3c(C)noc3C)cc2)CC1` [Compound 39, 4-((3,5-Dimethylisoxazol-4-yl)methoxy)-N-(1-ethylpiperidin-4-yl)benzamide], the inhibition at 10 µM under setting [1] stood at 100 ± 0.2%. The IC50 (TL8-506 (0.6 μM) 24 h) amounted to 1.1 µM.

Regarding `Cc1noc(C)c1COc1cccc(C(=O)NCCN(C(C)C)C(C)C)c1` [Compound 6], the inhibition at 10 µM under setting [1] was determined as 9 ± 4%.

In the case of `CCN1CCC(NC(=O)c2ccc(OCc3c(C)noc3C)c(OC)c2)C1` (centres unmarked) [Compound 29, 4-((3,5-Dimethylisoxazol-4-yl)methoxy)-N-(1-ethylpyrrolidin-3-yl)-3-methoxybenzamide], the inhibition at 10 µM under setting [1] turned out to be 72 ± 5%.

Take `COc1cc(C(=O)N2CCC(N3CCCC3)CC2)ccc1OCc1c(C)noc1C` [Compound 24, (4-((3,5-Dimethylisoxazol-4-yl)methoxy)-3-methoxyphenyl)(4-(pyrrolidin-1-yl)piperidin-1-yl)methanone]: the inhibition at 10 µM under setting [1] was determined as 96 ± 2%. For the same molecule, for the setting “TL8-506 (0.6 μM) 24 h”, the IC50 worked out at 3.46 µM.

In the case of `COc1cc(C(=O)NC2CCN(C)CC2)ccc1OCc1c(C)noc1C` [Compound 33, 4-((3,5-Dimethylisoxazol-4-yl)methoxy)-3-methoxy-N-(1-methylpiperidin-4-yl)benzamide], under setting [1], the inhibition at 10 µM turned out to be 94 ± 2%.

As to `CCCN1CCC(NC(=O)c2ccc(OCc3c(C)noc3C)cc2)CC1` [Compound 38, 4-((3,5-Dimethylisoxazol-4-yl)methoxy)-N-(1-propylpiperidin-4-yl)benzamide], under setting [1], the inhibition at 10 µM is 100 ± 0.1%. In addition, under “TL8-506 (0.6 μM) 24 h”, the IC50 came to 0.78 µM.

Turning to `Cc1noc(C)c1COc1ccc(C(=O)NCCN2CCCC2)cc1` [Compound 18, 4-((3,5-Dimethylisoxazol-4-yl)methoxy)-N-(2-(pyrrolidin-1-yl)ethyl)benzamide], the inhibition at 10 µM under setting [1] is 61 ± 3%.

On to `Cc1noc(C)c1COc1ccc(C(=O)NC2CCN(C)C2)cc1` (centres unmarked) [Compound 19, 4-((3,5-Dimethylisoxazol-4-yl)methoxy)-N-(1-methylpyrrolidin-3-yl)benzamide], for which the inhibition at 10 µM under setting [1] is 89 ± 2%. The IC50 (TL8-506 (0.6 μM) 24 h) is 3.06 µM.

Regarding `CCCCN1CCC(NC(=O)c2ccc(OCc3c(C)noc3C)cc2)CC1` [Compound 40, N-(1-Butylpiperidin-4-yl)-4-((3,5-dimethylisoxazol-4-yl)methoxy)benzamide], the inhibition at 10 µM under setting [1] stood at 99 ± 0.4%. Besides, the IC50 (TL8-506 (0.6 μM) 24 h) was 0.73 µM.

Regarding `Cc1noc(C)c1COc1ccc(C(=O)NC2CCN(C)CC2)cc1` [Compound 34, 4-((3,5-Dimethylisoxazol-4-yl)methoxy)-N-(1-methylpiperidin-4-yl)benzamide], under setting [1], the inhibition at 10 µM was 97 ± 0.9%. In addition, the IC50 (TL8-506 (0.6 μM) 24 h) came out at 1.68 µM.

With `COc1cc(C(=O)N2CCN(CCO)CC2)ccc1OCc1c(C)noc1C` [Compound 30, (4-((3,5-Dimethylisoxazol-4-yl)methoxy)-3-methoxyphenyl)(4-(2-hydroxyethyl)piperazin-1-yl)methanone], the “inhibition of NF-κB at 10 μM (in words)” value (hTLR8-HEK293) is on record as “low inhibition”. Also, the inhibition at 10 µM under setting [1] worked out at 24 ± 9%.

`Cc1noc(C)c1COc1cccc(C(=O)N2CCCC(C)C2CN)c1` (centres unmarked) [Compound 2]: under setting [1], the inhibition at 10 µM came to 3 ± 2%.

Take `Cc1noc(C)c1COc1ccc(C(=O)NC2CCNCC2)cc1` [Compound 43, 4-((3,5-Dimethylisoxazol-4-yl)methoxy)-N-(piperidin-4-yl)benzamide]: the inhibition at 10 µM under setting [1] is 32%.

On to `Cc1noc(C)c1COc1cccc(C(=O)N2CCCN(Cc3ccc(C(F)(F)F)cc3)CC2)c1` [Compound 7], for which the inhibition at 10 µM under setting [1] was determined as 5 ± 7%.

As to `Cc1noc(C)c1COc1ccc(C(=O)NN2CCN(C)CC2)cc1` [Compound 20, 4-((3,5-Dimethylisoxazol-4-yl)methoxy)-N-(4-methylpiperazin-1-yl)benzamide], under setting [1], the inhibition at 10 µM came out at 63 ± 0.7%.

Consider `COc1cc(C(=O)N2CCN(Cc3ccccc3)CC2)ccc1OCc1c(C)noc1C` [Compound 22, (4-Benzylpiperazin-1-yl)(4-((3,5-dimethylisoxazol-4-yl)methoxy)-3-methoxyphenyl)methanone], for which, for the setting “hTLR8-HEK293”, the “inhibition of NF-κB at 10 μM (in words)” value was “moderate”. In addition, the inhibition at 10 µM under setting [1] was 54 ± 3%.

Consider `Cc1noc(C)c1COc1ccc(C(=O)NCC(c2c(F)cccc2Cl)N(C)C)cc1` (centres unmarked) [Compound 5], for which the inhibition at 10 µM under setting [1] turned out to be 37 ± 7%.

Turning to `COc1cc(C(=O)N2CCC(N3CCCCC3)CC2)ccc1OCc1c(C)noc1C` [Compound 26, [1,4′-Bipiperidin]-1′-yl(4-((3,5-dimethylisoxazol-4-yl)methoxy)-3-methoxyphenyl)methanone], the inhibition at 10 µM under setting [1] was 77 ± 4%. The IC50 (TL8-506 (0.6 μM) 24 h) stood at 18.3 µM.

With `C=CCN1CCC(NC(=O)c2ccc(OCc3c(C)noc3C)cc2)CC1` [Compound 41, N-(1-Allylpiperidin-4-yl)-4-((3,5-dimethylisoxazol-4-yl)methoxy)benzamide], the inhibition at 10 µM under setting [1] came to 99 ± 0.7%. Besides, the IC50 (TL8-506 (0.6 μM) 24 h) came out at 0.5 µM.

Turning to `Cc1noc(C)c1COc1ccc(C(=O)NCC2CCN(C)C2)cc1` (centres unmarked) [Compound 37, 4-((3,5-Dimethylisoxazol-4-yl)methoxy)-N-((1-methylpyrrolidin-3-yl)methyl)benzamide], the inhibition at 10 µM under setting [1] worked out at 80 ± 2%.

As to `Cc1noc(C)c1COc1ccc(C(=O)N2CCC(N3CCCC3)CC2)cc1` [Compound 21, (4-((3,5-Dimethylisoxazol-4-yl)methoxy)phenyl)(4-(pyrrolidin-1-yl)piperidin-1-yl)methanone], under setting [1], the inhibition at 10 µM is 75 ± 2%.

Take `Cc1noc(C)c1COc1ccc(C(=O)N2CCN(CCO)CC2)cc1` [Compound 36, (4-((3,5-Dimethylisoxazol-4-yl)methoxy)phenyl)(4-(2-hydroxyethyl)piperazin-1-yl)methanone]: the “inhibition of NF-κB at 10 μM (in words)” value (hTLR8-HEK293) is “low inhibition”. The inhibition at 10 µM under setting [1] was found to be 26 ± 2%.

On to `COc1cc(C(=O)NCCN2CCCC2)ccc1OCc1c(C)noc1C` [Compound 11], for which the IC50 (TL8-506 (0.6 μM) 24 h) was 6.62 µM.

As to `CCCN1CCC(NC(=O)c2ccc(OCc3c(C)noc3C)c(OC)c2)CC1` [Compound 31, 4-((3,5-Dimethylisoxazol-4-yl)methoxy)-3-methoxy-N-(1-propylpiperidin-4-yl)benzamide], the inhibition at 10 µM under setting [1] came to 98 ± 0.3%. Also, the IC50 (TL8-506 (0.6 μM) 24 h) was 1.66 µM.
